≈ marks a conversion by molar mass, not a printed value.
How the values were obtained:
Streptococcus pneumoniae = assay: In vitro antibacterial activity against Streptococcus pneumoniae PU7; type: functional
Haemophilus influenzae = assay: In vitro antibacterial activity against Haemophilus influenzae Q1; type: functional
Streptococcus pyogenes = assay: In vitro antibacterial activity against Streptococcus pyogenes CN10; type: functional
Moraxella catarrhalis = assay: In vitro antibacterial activity against Moraxella catarrhalis 1502; type: functional
Staphylococcus aureus = assay: In vitro antibacterial activity against Staphylococcus aureus Oxford; type: functional
Mus musculus [1] = assay: Concentration required to protect 50% of the mice from death after oral administration of compound tested in vivo; type: functional
Mus musculus [2] = assay: The area under curve in vivo in mouse blood level after oral administration at dose 50 mk/kg e-1; type: ADME, organism-based
Mus musculus [3] = assay: The area under curve in vivo in mouse blood level after subcutaneous administration at dose 50 mk/kg e-1; type: ADME, organism-based; conditions: sc
[4] = tested on: Isoleucine--tRNA ligase (Moraxella catarrhalis); assay: In vitro antibacterial activity against isoleucyl-tRNA synthetase from Moraxella catarrhalis 1502
Mus musculus [5] = assay: Concentration required to protect 50% of the mice from death after s.c. administration of compound tested in vivo; type: functional
[6] = tested on: Isoleucine--tRNA ligase (Streptococcus pneumoniae); assay: In vitro antibacterial activity against isoleucyl-tRNA synthetase from Streptococcus pneumoniae PU7
[7] = target: T1, Isoleucine--tRNA ligase (Staphylococcus aureus) (UniProt P41972); assay: In vitro antibacterial activity against isoleucyl-tRNA synthetase from Staphylococcus aureus Oxford; type: functional
T1 sequence (whole entry): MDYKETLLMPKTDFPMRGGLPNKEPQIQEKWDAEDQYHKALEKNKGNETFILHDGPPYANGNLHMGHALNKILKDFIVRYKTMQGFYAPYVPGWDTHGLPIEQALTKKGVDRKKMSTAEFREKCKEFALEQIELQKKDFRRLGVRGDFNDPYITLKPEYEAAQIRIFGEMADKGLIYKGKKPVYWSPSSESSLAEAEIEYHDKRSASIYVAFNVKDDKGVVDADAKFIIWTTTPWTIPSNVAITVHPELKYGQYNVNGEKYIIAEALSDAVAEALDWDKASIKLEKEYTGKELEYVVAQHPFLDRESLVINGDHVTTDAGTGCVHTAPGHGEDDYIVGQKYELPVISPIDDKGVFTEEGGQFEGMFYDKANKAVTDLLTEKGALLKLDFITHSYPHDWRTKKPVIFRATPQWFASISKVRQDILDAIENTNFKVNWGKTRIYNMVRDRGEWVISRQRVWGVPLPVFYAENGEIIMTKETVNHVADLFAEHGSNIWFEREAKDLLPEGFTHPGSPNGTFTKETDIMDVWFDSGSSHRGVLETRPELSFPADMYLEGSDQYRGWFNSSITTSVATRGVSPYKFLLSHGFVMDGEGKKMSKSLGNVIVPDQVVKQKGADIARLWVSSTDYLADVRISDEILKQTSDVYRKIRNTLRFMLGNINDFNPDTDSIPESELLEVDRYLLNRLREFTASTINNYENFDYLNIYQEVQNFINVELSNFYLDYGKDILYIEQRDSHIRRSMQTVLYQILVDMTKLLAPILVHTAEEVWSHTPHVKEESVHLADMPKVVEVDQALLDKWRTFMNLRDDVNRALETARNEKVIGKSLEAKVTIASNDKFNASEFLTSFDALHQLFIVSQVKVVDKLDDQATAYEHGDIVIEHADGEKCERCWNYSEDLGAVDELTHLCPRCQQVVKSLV

Homo sapiens = assay: The compound was tested for its percentage serum binding affinity in human […]; type: organism-based
Mus musculus [8] = assay: The compound was tested for its percentage serum binding affinity in mouse […]; type: functional
[9] = tested on: Isoleucine--tRNA ligase (Haemophilus influenzae); assay: In vitro antibacterial activity against isoleucyl-tRNA synthetase from Haemophilus influenzae Q1
[10] = tested on: Isoleucine--tRNA ligase (Streptococcus pyogenes); assay: In vitro antibacterial activity against isoleucyl-tRNA synthetase from Streptococcus pyogenes CN10

Row | Compound | MIC (Streptococcus pneumoniae) [µg/mL] | MIC (Haemophilus influenzae) [µg/mL] | MIC (Streptococcus pyogenes) [µg/mL] | MIC (Moraxella catarrhalis) [µg/mL] | MIC (Staphylococcus aureus) [µg/mL] | CD50 (Mus musculus [1]) [mg/kg] | AUC (Mus musculus [2]) [ng·h/mL] | AUC (Mus musculus [3]) [ng·h/mL] | MIC [4] [µg/mL] | CD50 (Mus musculus [5]) [mg/kg] | MIC [6] [µg/mL] | MIC [7] [µg/mL] | Bound (Homo sapiens) [%] | Bound (Mus musculus [8]) [%] | MIC [9] [µg/mL] | MIC [10] [µg/mL]
1 | C/C(=C\C(=O)OCCCCCCCCC(=O)O)C[C@@H]1OC[C@H](C[C@@H]2O[C@H]2[C@@H](C)[C@H](C)O)[C@@H](O)[C@H]1O [MUPIROCIN] | 0.13 (≈ 0.26 µM) | 0.06 (≈ 0.12 µM) | 0.13 (≈ 0.26 µM) | 0.13 (≈ 0.26 µM) | 0.13 (≈ 0.26 µM) | – | – | – | – | – | – | – | – | – | – | –
2 | COc1ccc(/C=C/C(=O)C[C@@H]2OC[C@H](C[C@@H]3O[C@H]3[C@@H](C)[C@H](C)O)[C@@H](O)[C@H]2O)cc1 | 8 (≈ 19 µM) | 1 (≈ 2.38 µM) | 8 (≈ 19 µM) | 16 (≈ 38 µM) | 128 (≈ 304 µM) | – | – | – | – | – | – | – | – | – | – | –
3 | CCOC(OCC)c1ccc(C(=O)CC(=O)C[C@@H]2OC[C@H](C[C@@H]3O[C@H]3[C@@H](C)[C@H](C)O)[C@@H](O)[C@H]2O)cc1 | 1 (≈ 1.97 µM) | 1 (≈ 1.97 µM) | 0.5 (≈ 0.983 µM) | 0.5 (≈ 0.983 µM) | 1 (≈ 1.97 µM) | – | – | – | – | – | – | – | – | – | – | –
4 | C[C@H]([C@@H]1O[C@H]1C[C@H]1CO[C@@H](CC(=O)CC(=O)c2ccsc2)[C@H](O)[C@@H]1O)[C@H](C)O | 0.5 (≈ 1.21 µM) | 0.13 (≈ 0.315 µM) | 1 (≈ 2.42 µM) | 1 (≈ 2.42 µM) | 1 (≈ 2.42 µM) | – | – | – | – | – | – | – | – | – | – | –
5 | C[C@H]([C@@H]1O[C@H]1C[C@H]1CO[C@@H](CC(=O)CC(=O)c2ccc(C#N)cc2)[C@H](O)[C@@H]1O)[C@H](C)O | 0.25 (≈ 0.579 µM) | 0.06 (≈ 0.139 µM) | 0.13 (≈ 0.301 µM) | 0.5 (≈ 1.16 µM) | 2 (≈ 4.64 µM) | – | – | – | – | – | – | – | – | – | – | –
6 | C[C@H]([C@@H]1O[C@H]1C[C@H]1CO[C@@H](CC(=O)CC(=O)c2cnc(N(C)C)nc2)[C@H](O)[C@@H]1O)[C@H](C)O | 1 (≈ 2.21 µM) | 0.25 (≈ 0.554 µM) | 1 (≈ 2.21 µM) | 2 (≈ 4.43 µM) | 2 (≈ 4.43 µM) | – | – | – | – | – | – | – | – | – | – | –
7 | CCCCC(=O)CC(=O)C[C@@H]1OC[C@H](C[C@@H]2O[C@H]2[C@@H](C)[C@H](C)O)[C@@H](O)[C@H]1O | 8 (≈ 20.7 µM) | 0.5 (≈ 1.29 µM) | 2 (≈ 5.17 µM) | 2 (≈ 5.17 µM) | 8 (≈ 20.7 µM) | – | – | – | – | – | – | – | – | – | – | –
8 | COc1ccc(C(=O)CC(=O)C[C@@H]2OC[C@H](C[C@@H]3O[C@H]3[C@@H](C)[C@H](C)O)[C@@H](O)[C@H]2O)cn1 | 0.13 (≈ 0.297 µM) | 0.13 (≈ 0.297 µM) | 0.13 (≈ 0.297 µM) | 0.25 (≈ 0.571 µM) | 1 (≈ 2.29 µM) | – | – | – | – | – | – | – | – | – | – | –
9 | COc1ccc(C(=O)/C=C/C[C@@H]2OC[C@H](C[C@@H]3O[C@H]3[C@@H](C)[C@H](C)O)[C@@H](O)[C@H]2O)cc1 | 0.25 (≈ 0.595 µM) | 0.13 (≈ 0.309 µM) | 0.5 (≈ 1.19 µM) | 2 (≈ 4.76 µM) | 1 (≈ 2.38 µM) | – | – | – | – | – | – | – | – | – | – | –
10 | C[C@H]([C@@H]1O[C@H]1C[C@H]1CO[C@@H](CC(=O)CC(=O)c2ccc(N(C)C)nc2)[C@H](O)[C@@H]1O)[C@H](C)O | – | – | – | – | – | 23 | 7180 | 13300 | 1 (≈ 2.22 µM) | 12 | 0.5 (≈ 1.11 µM) | 1 (≈ 2.22 µM) | 84 | 66 | 0.06 (≈ 0.133 µM) | 1 (≈ 2.22 µM)
11 | COc1ccc(C(=O)CC(=O)C[C@@H]2OC[C@H](C[C@@H]3O[C@H]3[C@@H](C)[C@H](C)O)[C@@H](O)[C@H]2O)cc1 | – | – | – | – | – | 28 | 5920 | 14900 | 0.25 (≈ 0.573 µM) | 3.8 | 0.25 (≈ 0.573 µM) | 0.5 (≈ 1.15 µM) | 75 | 51 | 0.06 (≈ 0.137 µM) | 0.25 (≈ 0.573 µM)
12 | C[C@H]([C@@H]1O[C@H]1C[C@H]1CO[C@@H](CC(=O)CC(=O)C2=CCCCC2)[C@H](O)[C@@H]1O)[C@H](C)O | 0.5 (≈ 1.22 µM) | 0.13 (≈ 0.317 µM) | 0.5 (≈ 1.22 µM) | 2 (≈ 4.87 µM) | 2 (≈ 4.87 µM) | – | – | – | – | – | – | – | – | – | – | –
13 | COc1ccc(C(=O)/C=C(\C)C[C@@H]2OC[C@H](C[C@@H]3O[C@H]3[C@@H](C)[C@H](C)O)[C@@H](O)[C@H]2O)cc1 | – | – | – | – | – | 18 | 1770 | 5600 | 0.25 (≈ 0.575 µM) | 12 | 0.25 (≈ 0.575 µM) | 0.5 (≈ 1.15 µM) | 96 | 79 | 0.03 (≈ 0.069 µM) | 0.25 (≈ 0.575 µM)
14 | C[C@H]([C@@H]1O[C@H]1C[C@H]1CO[C@@H](CC(=O)CC(=O)c2cnn(C)c2)[C@H](O)[C@@H]1O)[C@H](C)O | 1 (≈ 2.44 µM) | 0.13 (≈ 0.317 µM) | 1 (≈ 2.44 µM) | 0.5 (≈ 1.22 µM) | 4 (≈ 9.74 µM) | – | – | – | – | – | – | – | – | – | – | –
15 | C[C@H]([C@@H]1O[C@H]1C[C@H]1CO[C@@H](CC(=O)CC(=O)c2ccccc2)[C@H](O)[C@@H]1O)[C@H](C)O | 0.5 (≈ 1.23 µM) | 0.25 (≈ 0.615 µM) | 0.5 (≈ 1.23 µM) | 1 (≈ 2.46 µM) | 1 (≈ 2.46 µM) | – | – | – | – | – | – | – | – | – | – | –
16 | C[C@H]([C@@H]1O[C@H]1C[C@H]1CO[C@@H](CC(=O)CC(=O)c2ccc(F)cc2)[C@H](O)[C@@H]1O)[C@H](C)O | – | – | – | – | – | 19 | 4930 | 6800 | 0.5 (≈ 1.18 µM) | 12 | 0.13 (≈ 0.306 µM) | 0.5 (≈ 1.18 µM) | 80 | – | 0.06 (≈ 0.141 µM) | 0.25 (≈ 0.589 µM)
17 | C[C@H]([C@@H]1O[C@H]1C[C@H]1CO[C@@H](CC(=O)CC(=O)c2ccoc2)[C@H](O)[C@@H]1O)[C@H](C)O | 2 (≈ 5.04 µM) | 0.13 (≈ 0.328 µM) | 1 (≈ 2.52 µM) | 2 (≈ 5.04 µM) | 1 (≈ 2.52 µM) | – | – | – | – | – | – | – | – | – | – | –
18 | C[C@H]([C@@H]1O[C@H]1C[C@H]1CO[C@@H](CC(=O)CC(=O)c2ccc(N(C)C)cc2)[C@H](O)[C@@H]1O)[C@H](C)O | 0.5 (≈ 1.11 µM) | 0.06 (≈ 0.133 µM) | 1 (≈ 2.22 µM) | 0.5 (≈ 1.11 µM) | 2 (≈ 4.45 µM) | – | – | – | – | – | – | – | – | – | – | –

Reference: ChEMBL document CHEMBL1132267, “Synthesis and antibacterial properties of beta-diketone acrylate bioisosteres of pseudomonic acid A” (Bioorg Med Chem Lett, 1999)
